According to ChEMBL document CHEMBL3611981, “Discovery of potent nitrotriazole-based antitrypanosomal agents: In vitro and in vivo evaluation” (Bioorg Med Chem, 2015):
Calls of active or inactive are those of the source. The rule behind the calls is not given here.

Key:
[1] = system: Trypanosoma brucei brucei; assay: Antiparasitic activity against blood stream form of Trypanosoma brucei brucei overexpressing type-1 nitroreductase after 3 days by Alamar blue assay in presence of tetracycline; assay type: functional, organism-based; details: 72 h
[2] = system: Trypanosoma brucei brucei; assay: Ratio of IC50 for blood stream form of Trypanosoma brucei brucei overexpressing type-1 nitroreductase in absence of tetracycline to IC50 for blood stream form of Trypanosoma brucei brucei overexpressing type-1 nitroreductase in presence of tetracycline; assay type: functional
[3] = system: Trypanosoma brucei brucei; assay: Antiparasitic activity against blood stream form of Trypanosoma brucei brucei overexpressing type-1 nitroreductase after 3 days by Alamar blue assay in absence of tetracycline; assay type: functional, organism-based; details: 72 h
[4] = system: Trypanosoma brucei rhodesiense; assay: Antiparasitic activity against trypomastigote stage of Trypanosoma brucei rhodesiense STIB 900 assessed as parasite growth inhibition after 72 hrs by Alamar blue assay; assay type: functional, organism-based; details: STIB 900, 72 h
[5] = system: Leishmania donovani; assay: Antiparasitic activity against axenic amastigote stage of Leishmania donovani MHOM-ET-67/L82 assessed as parasite growth inhibition after 72 hrs by Alamar blue assay; assay type: functional, organism-based; details: MHOM-ET-67/L82, 72 h
[6] = Selectivity index, ratio of IC50 for rat L6 cells to IC50 for axenic amastigote stage of Leishmania donovani MHOM-ET-67/L82
[7] = system: Trypanosoma cruzi; assay: Antiparasitic activity against amastigote stage of Trypanosoma cruzi Tulahuen C4 infected in rat L6 cells assessed as parasite growth inhibition after 96 hrs by beta-galactosidase reporter gene assay; assay type: functional, organism-based; details: Tulahuen C4, L6, 96 h
[8] = system: Leishmania donovani; assay: Antileishmanial activity against amastigote stage of Leishmania donovani infected in mouse peritoneal macrophages assessed as reduction in parasite burden after 96 hrs by Giemsa staining method; assay type: functional, organism-based
[9] = system: L6; assay: Cytotoxicity against rat L6 cells assessed as growth inhibition after 72 hrs by Alamar blue assay; assay type: cell-based; details: L6, 72 h
[10] = system: Leishmania donovani; assay: Potency index, ratio of miltefosine IC50 to compound IC50 for axenic amastigote stage of Leishmania donovani MHOM-ET-67/L82; assay type: functional
[11] = Selectivity index, ratio of IC50 for rat L6 cells to IC50 for amastigote stage of Trypanosoma cruzi Tulahuen C4 infected in rat L6 cells
[12] = system: Trypanosoma cruzi; assay: Potency index, ratio of benznidazole IC50 to compound IC50 for amastigote stage of Trypanosoma cruzi Tulahuen C4 infected in rat L6 cells; assay type: functional
[13] = Cytotoxicity against mouse peritoneal macrophages; assay type: cell-based; details: Peritoneal macrophage cell
[14] = Efflux ratio of apparent permeability across basolateral to apical side over apical to basolateral side in human Caco2 cells after 2 hrs; details: Caco-2
[15] = Selectivity index, ratio of IC50 for rat L6 cells to IC50 for trypomastigote stage of Trypanosoma brucei rhodesiense STIB 900
[16] = Half life in human microsomes at 1 uM in presence of NADPH
[17] = Half life in human microsomes at 1 uM in absence of NADPH
[18] = Prodrug conversion assessed as Trypanosoma brucei recombinant His-tagged type-1 nitroreductase-mediated drug metabolism by measuring NADH oxidation after 5 mins by spectrophotometric analysis; assay type: ADME; details: isolated protein
[19] = Prodrug conversion assessed as Trypanosoma cruzi recombinant type-1 nitroreductase-mediated drug metabolism by measuring NADH oxidation after 5 mins by spectrophotometric analysis; assay type: ADME; details: isolated protein
[20] = system: Mus musculus; assay: Toxicity in Balb/c mouse at 13 mg/kg/day, ip; assay type: organism-based; details: in vivo
[21] = system: Trypanosoma cruzi; assay: Antichagasic activity against trypomastigote stage of Trypanosoma cruzi Brazil infected in Balb/c mouse assessed as reduction in parasite load at 13 mg/kg/day, ip measured after 5 days by luciferase reporter gene assay; assay type: functional, organism-based
[22] = system: Trypanosoma brucei brucei; assay: Antiparasitic activity against wild type blood stream form of Trypanosoma brucei brucei after 3 days by Alamar blue assay; assay type: functional, organism-based; details: 72 h

Compound | IC50 [1] [µM] | Ratio IC50 [2] | IC50 [3] [µM] | IC50 [4] [µM] | IC50 [5] [µM] | selectivity ratio [6] | IC50 [7] [µM] | IC50 [8] [µM] | IC50 [9] [µM] | Ratio IC50 [10] | selectivity ratio [11] | Ratio IC50 [12] | IC50 [13] [µM] | selectivity ratio [15] | Drug metabolism [18] [nmol/min/mg] | Drug metabolism [19] [nmol/min/mg] | also measured
CC1CS(=O)(=O)CCN1/N=C/c1ccc([N+](=O)[O-])o1 (centres undefined) [NIFURTIMOX] | 0.43 | 10.3 | 4.41 |  |  |  |  |  |  |  |  |  |  |  |  |  | 
O=C(Cn1ccnc1[N+](=O)[O-])Nc1ccc(Oc2ccccc2)cc1 |  |  |  | 15 | 0.79 | 79 | 4.2 | 16 | 62 | 0.21 | 15 | 0.48 | > 89 |  |  |  | 
CC(C)NCC(O)COc1ccc(CC(N)=O)cc1 (centres undefined) [ATENOLOL] |  |  |  |  |  |  |  |  |  |  |  |  |  |  |  |  | efflux ratio at 2 h [14]: 3.7
O=C(Cn1ccnc1[N+](=O)[O-])Nc1ccc(Oc2ccc(F)cc2)cc1 |  |  |  | 13 | 0.29 | 418 | 3.3 | 14 | 123 | 0.55 | 37 | 0.61 | > 84 | 9 |  |  | 
O=C(Cn1cnc([N+](=O)[O-])n1)Nc1cccc(-c2ccccc2)c1 |  |  |  |  |  |  |  |  | 45 |  |  |  |  |  |  |  | half-life at 1 µM [16]: 1.06 h; half-life at 1 µM [17]: 1.8 h
O=C(Cn1cnc([N+](=O)[O-])n1)Nc1ccc(Oc2ccc(F)cc2)cc1 | 0.77 | 4.8 | 3.67 | 2 | 0.18 | 384 | 0.036 | > 28 | 70 | 0.89 | 1950 | 56 | 84 | 35 | 2702 | 516 | Activity [20]: Non-toxic; Activity [21]: Active; IC50 [22]: 3.13 µM
O=C(Cn1ccnc1[N+](=O)[O-])Nc1ccc(Oc2ccc(Cl)cc2)cc1 | 1.71 | 3.8 | 6.48 | 2.6 | 0.14 | 937 | 2.6 | 15 | 127 | 1.2 | 49 | 0.78 | > 81 | 50 | 3337 | 817 | IC50 [22]: 4.72 µM
CC(C)NCC(O)COc1cccc2ccccc12 (centres undefined) [PROPRANOLOL] |  |  |  |  |  |  |  |  |  |  |  |  |  |  |  |  | efflux ratio at 2 h [14]: 3.1
O=C(Cn1cnc([N+](=O)[O-])n1)Nc1ccc(-c2ccc(Cl)cc2)cc1 | 0.85 | 0.8 | 0.69 |  | 0.17 | 738 |  | > 84 |  | 0.95 | 2800 | 45 | > 84 | 140 | 2492 | 585 | Activity [20]: Non-toxic; Activity [21]: Active; IC50 [22]: 0.69 µM
O=C(Cn1cnc([N+](=O)[O-])n1)Nc1nccc(-c2ccccc2)n1 |  |  |  | 139 | > 308 |  | 2.5 |  | 169 |  | 66 | 0.8 |  | 1.2 |  |  | 
CCCCCCCCCCCCCCCCOP(=O)([O-])OCC[N+](C)(C)C [MILTEFOSINE] |  |  |  |  |  |  |  | 6.89 |  |  |  |  |  |  |  |  | 
O=C(Cn1cnc([N+](=O)[O-])n1)Nc1ccc(Oc2ccc(Cl)cc2)cc1 | 1.18 | 5 | 5.9 | 1.3 | 0.034 | 853 | 0.008 | > 27 | 29 | 4.8 | 3620 | 254 | 80 | 22 | 2699 | 628 | Activity [20]: Non-toxic; Activity [21]: Active; IC50 [22]: 5.09 µM
COc1ccc2c(c1)[C@]13CCCC[C@@H]1[C@H](C2)N(C)CC3 [DEXTROMETHORPHAN] |  |  |  |  |  |  |  |  |  |  |  |  |  |  |  |  | half-life at 1 µM [16]: 1.54 h; half-life at 1 µM [17]: 2.57 h
O=C(Cn1cnc([N+](=O)[O-])n1)Nc1cccc(OCc2ccccc2)c1 |  |  |  | 4.9 | 3.4 | 20 | 0.028 |  | 68 |  | 2420 | 17 |  | 14 |  |  | 
O=C(Cn1cnc([N+](=O)[O-])n1)Nc1ccc(Cc2ccccc2)cc1 |  |  |  | 2.1 | 1.2 | 31 | 0.068 | > 30 | 36 | 0.12 | 528 | 34 | > 89 | 17 |  |  | 
O=C(Cn1cncn1)Nc1ccc(Oc2ccc(Cl)cc2)cc1 |  |  |  | 26 | 29 | 5 | 18 |  | 137 |  | 7.5 |  |  |  |  |  | 
O=C(Cn1cnc([N+](=O)[O-])n1)NC1CCN(Cc2ccccc2)CC1 |  |  |  | 12 | 133 | < 1 | 8 |  | 114 |  | 14 | 0.28 |  | 9.6 |  |  | 
O=C(Cn1cnc([N+](=O)[O-])n1)Nc1ccc(Oc2ccccc2)cc1 | 1.37 | 1.7 | 2.34 | 2.7 | 0.27 | 339 | 0.065 | > 30 | 92 | 0.6 | 1420 | 31 | 89 | 34 | 2931 | 815 | IC50 [22]: 1.35 µM
O=C(Cn1ccnc1[N+](=O)[O-])NCc1ccccc1 [BENZNIDAZOLE] |  |  |  |  |  |  |  |  |  |  |  |  |  |  | 1540 | 680 | Activity [20]: Non-toxic; Activity [21]: Active
